Source: article PMC3517478 (BMC Neurology, 2012)
Where a chain is given by its changes, count along the chain named. “And” between values parts separate entries of the source, which are not always exact repeats. Identical values can stand only once.

Assays:
[1] = biological target: T1, human α1-GlyR (WT) expressed in HEK 293 cells (Homo sapiens, UniProt P23415)
T1 sequence (P23415 29-457): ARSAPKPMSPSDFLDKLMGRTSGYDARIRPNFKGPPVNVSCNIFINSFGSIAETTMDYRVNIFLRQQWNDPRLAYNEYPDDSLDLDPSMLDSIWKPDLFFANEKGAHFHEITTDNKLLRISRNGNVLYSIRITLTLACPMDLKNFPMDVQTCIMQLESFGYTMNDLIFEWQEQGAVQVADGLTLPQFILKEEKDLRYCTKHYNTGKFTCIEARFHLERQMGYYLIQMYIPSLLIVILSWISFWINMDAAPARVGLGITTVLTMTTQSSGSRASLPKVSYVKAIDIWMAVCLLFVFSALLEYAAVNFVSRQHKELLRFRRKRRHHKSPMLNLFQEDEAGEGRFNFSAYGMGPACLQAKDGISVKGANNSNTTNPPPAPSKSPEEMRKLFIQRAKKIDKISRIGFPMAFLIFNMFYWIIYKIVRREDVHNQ
Excerpt: (§1) Human α1-, α1R271Q-, α1R271L-, α1R271K and α1S267I-GlyR subunits were transiently transfected into human embryonic kidney cells (HEK 293, ATCC, Manassas, USA). The wild type α1-GlyR -cDNA was cloned in pCIS2 (Invitrogen, San Diego, USA) vector and provided by Prof. Heinrich Betz (Max-Planck-Institut für Hirnforschung, Frankfurt am Main, Germany). For the plasmid cDNA of the mutated α1R271Q-, α1R271L-, α1R271K- and α1S267I-GlyR the eukaryotic expression vector pcDNA1amp (Invitrogen, San Diego, USA), under the control of cytomegalovirus promoter, was used. For site-directed mutagenesis, single stranded template cDNA was synthesized from M13 origin of replication and the mutations of arginine residue (R) at position 271 to glutamine (R271Q), leucine (R271L) or lysine (R271K) and mutation of serine residue (S) at position 267 to isoleucine (S267I) were generated using standard procedures. […] Wild type and mutated α1-GlyR subunits efficiently form homomeric receptors in heterologous expression systems.
(§2) HEK 293 cells were cultured in medium containing HAMS’F-12 (Biochrom, Berlin, Germany), supplemented with 10% fetal bovine serum (FBS, Biochrom, Berlin, Germany), 100 U ml^–1 penicillin and 100μgml^–1 streptomycin (Gibco BRL, Life Technologies, Karlsruhe, Germany) at 37°C in a 5% CO2/ 95% air incubator. For transfection cells were suspended in a buffer containing 50mM K2HPO4 (Fluka BioChemika, Seelze, Germany), 20mMK-acetate (Sigma-Aldrich, Taufkirchen, Germany) and 25mM MgSO4 (Sigma-Aldrich, Taufkirchen, Germany) at pH 7.35. To visualize transfected cells, they were co-transfected with cDNA encoding for enhanced green fluorescent protein (EGFP) contained in the pEGFP-N1 expression vector (Clontech, Palo Alto, USA). The corresponding cDNA (5μg for the GlyR and 2.5μg for EGFP) was added to 400μl of the cell suspension and the mixture was rapidly transferred into the electroporation cuvette. For transfection we used an electroporation device by EquiBio (Kent, UK) and a 4mm aluminum electrode electroporation cuvette (Peqlab, Erlangen, Germany).
(§3) The phenol derivative 4-chloropropofol ([…]) was provided as pure substance by Prof. Paul M. O’Neill (University of Liverpool, England), prepared as light-protected 1M stock solution in ethanol (EtOH, J.T.Baker, Griesheim, Germany) and stored in glass vessels at −20°C.
(§4) Drug-containing vials were vigorously vortexed for 30min. Patch electrodes were filled with an intracellular solution of [mM] KCl 140, MgCl2 2, EGTA 11, HEPES 10, glucose 11, CaCl2 1 with pH 7.3, adjusted with 1 M KOH and a bath solution contained [mM] NaCl 162, KCl 5.31, NaHPO4 0.85, KH2PO4 0.22, HEPES 15, glucose 6.11, pH 7.4 adjusted with 1 M NaOH. Osmolarity of both solutions was set at 280–300 mOsmol.
(§5) Whole-cell experiments were performed at a holding potential of −30 mV with a mean seal resistance of 1 GΩ. […] A fast liquid filament switch technique was used for the application of the agonist, presented in pulses of 2 s duration every 20 s. The liquid filament switch technique is able to exchange the solution passing an outside-out patch or small whole-cells within 1–2 ms. We calculated flow rate of background solution through the chamber with 3,4 ml/min corresponding to 4% of maximal pump rate. With regard to the chamber volume of 100 μl the exchange solution time within the chamber was assessed to approximately […], dependent on cell size accordingly. Piezo-switch and small diameter capillary (ID 0.15 mm) within the measurement chamber promoted the millisecond solution exchange. […] The induced current (I) by this saturating control solution was defined as Icontrol. […] The stability of the seal was controlled during the complete experiment via control of the seal resistance. A variation of 10-20% of the basic value was regarded as tolerable.

[2] = biological target: T2, human α1S267I-GlyR expressed in HEK 293 cells (Homo sapiens, UniProt P23415, S295I); conditions: S267I
T2 sequence (P23415 29-457 S295I): T1 sequence (P23415 29-457) with S267I
Excerpt: as §1, §2, §3, §4, §5

[3] = 10-90% of Imax, monoexponential fit

NCC(=O)O [glycine]
Current amplitude [% of mean WT current amplitude] ± SEM [1]: 100.0±26% | nH ± SEM (Hill coefficient), glycine activation [1]: 0.8 and 0.8±0.7 | Rise time ± SEM [1, 3]: 3.7 ms and 3.7 ± 0.8 ms | Mean current amplitude ± SEM ([1]; saturating glycine 1 mM): 1645±426 pA | Current amplitude [% of mean WT current amplitude] ± SEM [2]: 68.2±68% | nH ± SEM (Hill coefficient), glycine activation [2]: 1.1±0.2 | Rise time ± SEM [2, 3]: 6.6 ± 2.5 ms | Mean current amplitude ± SEM ([2]; saturating glycine 1 mM): 1122±765 pA
